Test results: the CheMixHub ionic liquid set

Assay: xn = mol fraction of the nth substance listed

CCCCCCCCCC[n+]1ccn(C)c1.[Cl-] + O
298.15 K, frequency 5e-05 MHz
Conditions | electrical conductivity [S/m]
100 kPa, x1 = 0.0002846 | 0.126
100 kPa, x1 = 0.0003693 | 0.163
100 kPa, x1 = 0.0004125 | 0.177
100 kPa, x1 = 0.0004683 | 0.205
100 kPa, x1 = 0.0005331 | 0.235
100 kPa, x1 = 0.0005997 | 0.262
100 kPa, x1 = 0.0006609 | 0.294
100 kPa, x1 = 0.0007347 | 0.32
100 kPa, x1 = 0.0007922 | 0.347
100 kPa, x1 = 0.0008678 | 0.375
100 kPa, x1 = 0.000929 | 0.4
100 kPa, x1 = 0.0009883 | 0.424
100 kPa, x1 = 0.001073 | 0.44
100 kPa, x1 = 0.001143 | 0.446
100 kPa, x1 = 0.001186 | 0.45
100 kPa, x1 = 0.001274 | 0.458
100 kPa, x1 = 0.001346 | 0.467
100 kPa, x1 = 0.001387 | 0.471
100 kPa, x1 = 0.001452 | 0.479
100 kPa, x1 = 0.001524 | 0.489
100 kPa, x1 = 0.001603 | 0.493
100 kPa, x1 = 0.001637 | 0.497
101.3 kPa, x1 = 0.04436 | 4.7

298.15 K, 101.3 kPa
Conditions | electrical conductivity [S/m]
x1 = 6.46e-06 | 0.00385
x1 = 9.55e-06 | 0.00548
x1 = 1.262e-05 | 0.00708
x1 = 1.582e-05 | 0.00872
x1 = 1.894e-05 | 0.0103
x1 = 2.2e-05 | 0.0118
x1 = 2.507e-05 | 0.01334
x1 = 2.8e-05 | 0.0148
x1 = 3.092e-05 | 0.0162
x1 = 3.384e-05 | 0.0176

OCCO + CC[n+]1ccn(C)c1.F[B-](F)(F)F
viscosity [mPa·s]
Conditions | 293.15 K | 298.15 K | 323.15 K | 333.15 K | 343.15 K
100 kPa, x1 = 1 | 21.4 | 17.4 | 7.12 | – | 4.1
101 kPa, x2 = 0 | – | – | – | 5.19 | –

CC(N)C(=O)[O-].COCCCCn1cc[n+](C)c1 + CS(C)=O
100 kPa
Conditions | viscosity [mPa·s]
288.15 K, x1 = 0.1996 | 11.74
288.15 K, x1 = 0.3012 | 22.04
288.15 K, x1 = 0.5996 | 96.5
288.15 K, x1 = 0.8997 | 304
293.15 K, x1 = 0.1996 | 11.35
293.15 K, x1 = 0.3012 | 19.11
293.15 K, x1 = 1 | 266
298.15 K, x1 = 0.1996 | 8.85
303.15 K, x1 = 0.1996 | 7.37
303.15 K, x1 = 0.5996 | 41.72
308.15 K, x1 = 0.3985 | 16.23
308.15 K, x1 = 0.5996 | 33.51
308.15 K, x1 = 0.6966 | 44.96
308.15 K, x1 = 0.7973 | 60.65
313.15 K, x1 = 0.6966 | 36.01
318.15 K, x1 = 0.1009 | 3.18
318.15 K, x1 = 0.4922 | 15.18
318.15 K, x1 = 0.5996 | 21.68
318.15 K, x1 = 0.7973 | 37.1

CCCCCCCCCC[n+]1ccn(C)c1.[Cl-] + CC(C)O
298.15 K, 101.3 kPa, frequency 5e-05 MHz
Conditions | electrical conductivity [S/m]
x1 = 0.01207 | 0.0497
x1 = 0.02515 | 0.0872
x1 = 0.03936 | 0.126
x1 = 0.05486 | 0.17
x1 = 0.07184 | 0.218
x1 = 0.09051 | 0.266
x1 = 0.1111 | 0.308
x1 = 0.134 | 0.337
x1 = 0.1597 | 0.348
x1 = 0.1884 | 0.343
x1 = 0.2211 | 0.326
x1 = 0.2583 | 0.312
x1 = 0.3013 | 0.325
x1 = 0.3514 | 0.399
x1 = 0.4106 | 0.584
x1 = 0.4815 | 0.944

CS(=O)(=O)[O-].C[N+](C)(CCO)CCO + O
101 kPa
Conditions | viscosity [mPa·s]
298.15 K, x1 = 0.1991 | 14.87
303.15 K, x1 = 0.2989 | 29.9
303.15 K, x1 = 0.6984 | 333
313.15 K, x1 = 0.4797 | 62.4
313.15 K, x1 = 0.6984 | 186
318.15 K, x1 = 0.2989 | 17.3
318.15 K, x1 = 0.4797 | 50.1
318.15 K, x1 = 1 | 378
323.15 K, x1 = 0.1991 | 6.85
323.15 K, x1 = 0.4797 | 40.9
323.15 K, x1 = 0.6984 | 112.1
323.15 K, x1 = 1 | 282

CCCCn1cc[n+](C)c1C.O=S(=O)([N-]S(=O)(=O)C(F)(F)F)C(F)(F)F + CCCC[n+]1ccn(C)c1C.F[B-](F)(F)F
Conditions | electrical conductivity [S/m]
358.15 K, 100 kPa, x1 = 1 | 1.71

CN1CCN(C)C1=O + CCCCCCCCn1cc[n+](C)c1.[Cl-]
100 kPa
Conditions | viscosity [mPa·s]
288.15 K, x2 = 0.3018 | 87.7
288.15 K, x2 = 0.4964 | 614
293.15 K, x2 = 0.3991 | 158.4
303.15 K, x2 = 0.2056 | 16.57
303.15 K, x2 = 0.4964 | 230
308.15 K, x2 = 0.7994 | 1104
313.15 K, x2 = 0.4964 | 129.8
313.15 K, x2 = 0.7994 | 774
318.15 K, x2 = 0.4964 | 100.2
323.15 K, x2 = 0.4964 | 79.4
328.15 K, x2 = 0.105 | 3.05
328.15 K, x2 = 0.3991 | 31.3
333.15 K, x2 = 0.7007 | 148

CCCC[N+]1(C)CCCC1.N#C[S-] + O
101 kPa
Conditions | viscosity [mPa·s]
298.15 K, x2 = 0.2203 | 68.6
298.15 K, x2 = 0.5252 | 28.9
298.15 K, x2 = 0.783 | 10.04
298.15 K, x2 = 0.8623 | 5.9
308.15 K, x2 = 0.5252 | 19.9
308.15 K, x2 = 0.6634 | 12.37
308.15 K, x2 = 0.8623 | 4.31
308.15 K, x2 = 0.9657 | 1.36
318.15 K, x2 = 0.2203 | 31.6
318.15 K, x2 = 0.8623 | 3.23
318.15 K, x2 = 0.9657 | 1.1
328.15 K, x2 = 0.0853 | 28.9
328.15 K, x2 = 0.783 | 4.19
338.15 K, x2 = 0 | 25.3
338.15 K, x2 = 0.2203 | 17.3
338.15 K, x2 = 0.783 | 3.27
338.15 K, x2 = 0.9657 | 0.79
348.15 K, x2 = 0.2203 | 13.32
348.15 K, x2 = 0.6634 | 4.42
348.15 K, x2 = 0.9657 | 0.69

CS(=O)(=O)[O-].C[N+](C)(CCO)CCO + CC(C)O
viscosity [mPa·s], 101 kPa
Conditions | x1 = 0.0998 | x1 = 0.2001 | x1 = 0.3002 | x1 = 0.4004 | x1 = 0.4982 | x1 = 0.5999 | x1 = 0.6997 | x1 = 0.7978 | x1 = 0.8994 | x1 = 1
298.15 K | 5.62 | 13.5 | 30.1 | 61 | 123 | 227 | 385 | 628 | 1025 | 1495
303.15 K | 4.78 | 11.45 | 24.1 | 47.7 | 86.7 | 168 | 281 | 445 | 712 | 1021
308.15 K | 4.13 | 9.67 | 19.7 | 38 | 67.4 | 128.7 | 210 | 324 | 507 | 716
313.15 K | 3.6 | 8.13 | 16.3 | 30.7 | 53.4 | 89.6 | 159 | 243 | 370 | 513
318.15 K | 3.36 | 6.96 | 13.7 | 25.2 | 43 | 70.7 | 123.6 | 186 | 278 | 378
323.15 K | 2.83 | 6.02 | 11.86 | 21 | 35.1 | 56.7 | 87 | 143.8 | 211 | 282
